Results on 1 compound are retold here after patent publication EP4722213A1, “NITROGEN-CONTAINING FUNCTIONAL GROUP-SUBSTITUTED PYRIDAZINOPYRIDONE DERIVATIVE AND USE THEREOF” (Sichuan Huiyu Pharmaceutical Co., Ltd., priority 2023, dated 2024).

Series [1] is described as follows: Rat liver microsomal metabolic stability. It is filed as in vitro ADME. Conditions: rat liver microsomes. The essentials:
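Rat liver microsomes (1 mg/mL working solution) with test compound (working solution 100 µM) were pre-incubated 5 min at 37 °C, then started with NADPH (4.0 mM working solution). Residual compound measured by LC-MS/MS over time. T1/2 taken from first-order decay, scaled to CLint and hepatic CL with fu = 1.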
A general note: Liver microsomes are a subcellular fraction often used to study metabolism.

A short description of series [2]: Mouse pharmacokinetic test. Conditions: plasma, female Balb/c mice, IV 1 mg/kg, PO 10 mg/kg via gavage. It is filed as in vivo. On the procedure:
Female Balb/c mice, weighing 19-21 g, were divided into two groups based on the principle of similar body weight, with 9 mice in each of the IV group and the PO group (for cross blood collection). The IV group was administered the test compound at a dose of 1 mg/kg via intravenous injection, and the PO group was administered the test compound at a dose of 10 mg/kg via gavage. Whole blood was collected from the IV group before administration and at 0.083, 0.25, 0.5, 1, 2, 4, 6, 8, and 24 h after administration; for the PO group, whole blood was collected before administration and at 0.25, 0.5, 1, 2, 4, 6, 8, and 24 h after administration. The blood samples were placed in K2-EDTA anticoagulant tubes, centrifuged (4°C) within 30 minutes to separate plasma, and stored at -80°C for subsequent testing. During sample processing, an appropriate amount of acetonitrile containing an internal standard was used for protein precipitation, vortexed, and after centrifugation, the supernatant was taken for injection into LC-MS/MS for detection. Based on the measured plasma drug concentrations, the main pharmacokinetic parameters were calculated to evaluate its pharmacokinetic behavior. The main pharmacokinetic parameters were analyzed by the non-compartmental model using WinNonLin 8.3 software.

A further series has as its target T1, CYP3A4 (Homo sapiens, UniProt P08684).
T1 construct: human liver microsomes were used as the CYP450 enzyme source; from tissue; host or cells: human liver microsomes
In words: Inhibition of hepatic drug-metabolizing enzymes in human liver microsomes (substrates midazolam and testosterone). It is filed as in vitro ADME. The text has this: (§1) The main site of drug metabolism is the liver, and the main component of the mixed-function oxidase system present in the liver is the CYP450 enzyme. This enzyme system causes most clinically observed drug-drug interactions, which in turn leads to an increased incidence of adverse drug reactions. CYP450 is a group of supergene family composed of many isozymes, wherein CYP3A4 acts as a major metabolizing enzyme and is involved in the metabolism of nearly half of clinically used drugs. Similarly, CYP2C9 and CYP2C19 also act as important metabolizing enzymes and are involved in the metabolism of various drugs clinically. Therefore, evaluating the risk of drug-drug interactions by testing the inhibitory activity of compounds on CYP450 enzymes at an early stage can improve the safety of medication use.
(§2) In the present disclosure, human liver microsomes were used as the CYP450 enzyme source. The specific probe substrates for each CYP isoenzyme (wherein CYP3A4 used two substrates, midazolam and testosterone, denoted as CYP3A4-M and CYP3A4-T respectively) were incubated with a series of concentrations of the test compound in the presence of the cofactor NADPH. The production amount of metabolites of probe substrates in the incubation system was determined by LC-MS/MS, and the IC50 values of the test compound against each CYP450 enzyme subtype were calculated to evaluate its inhibitory effect on each CYP450 enzyme subtype. During the experiment, 49 µL of PBS, 50 µL of probe substrate, and 50 µL of human liver microsome working solution were sequentially added to the incubation system, followed by the addition of 1 µL of the test compound working solution at each concentration, and the mixture was mixed well. After pre-incubation at 37°C for 5 min, 50 µL of NADPH was added to initiate the reaction. After incubation for the corresponding time, an appropriate amount of ice-cold acetonitrile containing an internal standard was added to terminate the reaction. The mixture was vortexed to mix well, centrifuged, and the supernatant was taken. The supernatant was injected into LC-MS/MS to determine the production amount of metabolites of the probe substrate. Taking the enzyme activity at the 0-concentration point (characterized by the production amount of metabolites) as 100%, the percentage of residual enzyme activity of metabolites at different concentrations of the test compound was calculated. IC50 was calculated by the residual enzyme activity using Graphpad Prism software.

Another series concerns the target T2, CYP2C9 (Homo sapiens, UniProt P11712).
T2 construct: human liver microsomes were used as the CYP450 enzyme source; from tissue; host or cells: human liver microsomes
In words: Inhibition of hepatic drug-metabolizing enzymes in human liver microsomes. It is filed as in vitro ADME. Conditions: human liver microsomes; read-out: Inhibitory activity on drug-metabolizing enzymes (IC50, µM) CYP2C9.
Text: as §1, §2

The target in the next series is T3, CYP2C19 (Homo sapiens, UniProt P33261).
T3 construct: human liver microsomes were used as the CYP450 enzyme source; from tissue; host or cells: human liver microsomes
Described as above. Conditions: human liver microsomes; read-out: Inhibitory activity on drug-metabolizing enzymes (IC50, µM) CYP2C19. It is filed as in vitro ADME.
Text: as §1, §2

The nature of a further series: Rat pharmacokinetic test. It is filed as in vivo. To be noted: plasma, male SD rats, IV 1 mg/kg, PO 5 mg/kg via gavage. How it is done:
Male SD rats, weighing 200-250 g, were used and divided into two groups based on the principle of similar body weight, with 3 rats in each of the IV group and the PO group. The IV group was administered the test compound at a dose of 1 mg/kg via intravenous injection, and the PO group was administered the test compound at a dose of 5 mg/kg via gavage. Whole blood was collected from the IV group respectively before administration and at 0.083, 0.25, 0.5, 1, 2, 4, 6, 8, and 24 h after administration; for the PO group, whole blood was collected before administration and at 0.25, 0.5, 1, 2, 4, 6, 8, and 24 h after administration. The blood samples were placed in K2-EDTA anticoagulant tubes, centrifuged (4°C) within 30 min to separate plasma, and stored at -80°C for subsequent testing. During sample processing, an appropriate amount of acetonitrile containing an internal standard was used for protein precipitation, vortexed, and after centrifugation, the supernatant was taken for injection into LC-MS/MS for detection. Based on the measured plasma drug concentrations, the main pharmacokinetic parameters were calculated to evaluate its pharmacokinetic behavior. The main pharmacokinetic parameters were analyzed by the non-compartmental model using WinNonLin 8.3 software.

Each structure is given as a SMILES string.

T1 sequence (P08684 whole entry): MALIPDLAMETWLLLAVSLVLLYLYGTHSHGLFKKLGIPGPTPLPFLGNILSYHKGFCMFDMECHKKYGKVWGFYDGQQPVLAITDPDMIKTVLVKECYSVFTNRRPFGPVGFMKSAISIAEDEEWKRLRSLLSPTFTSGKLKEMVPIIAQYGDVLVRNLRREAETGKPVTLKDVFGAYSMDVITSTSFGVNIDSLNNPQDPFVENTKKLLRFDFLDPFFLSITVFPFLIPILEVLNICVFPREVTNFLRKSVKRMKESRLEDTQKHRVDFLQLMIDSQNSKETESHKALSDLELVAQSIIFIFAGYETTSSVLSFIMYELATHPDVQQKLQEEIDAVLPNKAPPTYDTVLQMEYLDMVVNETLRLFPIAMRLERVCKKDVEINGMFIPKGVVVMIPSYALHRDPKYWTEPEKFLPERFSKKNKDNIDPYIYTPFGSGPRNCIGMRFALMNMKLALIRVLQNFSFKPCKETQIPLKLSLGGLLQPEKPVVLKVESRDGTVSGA
T3 sequence (P33261 whole entry): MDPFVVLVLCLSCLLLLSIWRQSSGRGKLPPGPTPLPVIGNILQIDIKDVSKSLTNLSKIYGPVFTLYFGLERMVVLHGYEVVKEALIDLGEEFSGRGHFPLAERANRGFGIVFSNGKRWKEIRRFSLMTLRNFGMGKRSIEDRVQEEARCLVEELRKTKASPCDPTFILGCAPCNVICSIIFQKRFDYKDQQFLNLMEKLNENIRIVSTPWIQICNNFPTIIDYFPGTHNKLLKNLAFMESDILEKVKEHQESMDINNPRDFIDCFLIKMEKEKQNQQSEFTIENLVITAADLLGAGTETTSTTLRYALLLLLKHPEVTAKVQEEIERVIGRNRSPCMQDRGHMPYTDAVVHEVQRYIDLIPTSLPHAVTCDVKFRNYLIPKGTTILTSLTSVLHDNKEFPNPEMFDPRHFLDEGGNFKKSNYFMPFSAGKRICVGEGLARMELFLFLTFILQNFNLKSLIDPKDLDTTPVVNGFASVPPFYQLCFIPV
T2 sequence (P11712 whole entry): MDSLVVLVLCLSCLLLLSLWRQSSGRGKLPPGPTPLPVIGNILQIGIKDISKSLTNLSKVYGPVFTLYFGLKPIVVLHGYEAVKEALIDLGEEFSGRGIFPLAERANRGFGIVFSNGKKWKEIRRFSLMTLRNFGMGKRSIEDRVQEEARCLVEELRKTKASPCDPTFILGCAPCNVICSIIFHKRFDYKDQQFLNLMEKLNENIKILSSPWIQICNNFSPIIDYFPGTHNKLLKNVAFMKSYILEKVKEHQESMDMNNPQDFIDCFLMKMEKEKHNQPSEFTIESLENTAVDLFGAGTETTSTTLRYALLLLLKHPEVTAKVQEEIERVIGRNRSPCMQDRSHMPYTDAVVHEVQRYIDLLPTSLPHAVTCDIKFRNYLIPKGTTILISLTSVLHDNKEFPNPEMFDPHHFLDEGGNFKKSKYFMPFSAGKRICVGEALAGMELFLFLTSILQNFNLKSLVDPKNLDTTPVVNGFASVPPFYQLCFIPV

Take `Cc1c(C#N)cccc1[C@@H](C)Nc1nnc(C)c2cnc(N3CCOCC3)cc12` [MRTX0902, reference compound]: the half-life (in general, how long it takes for the measured level to halve) at 1 µM in series [1] (NADPH, 37°C) came out at 2.9 min. The CLint scaled at 1 µM in series [1] (calculated from T1/2, fu defaulted to 1, read-out: CL(liver)) is 51.9 mL/min/kg. In addition, the bioavailability (commonly the share of a dose that reaches the circulation, judged against a reference dose that is usually intravenous) came out at 40.4% in series [2] and 22.6% in “Rat pharmacokinetic test”. Besides, the half-maximal inhibitory concentration (IC50) (commonly the concentration needed to halve the response being measured) at CYP3A4 (Inhibitory activity on drug-metabolizing enzymes (IC50, µM) CYP3A4-M, substrate midazolam) worked out at 6.9 µM; at CYP3A4 (Inhibitory activity on drug-metabolizing enzymes (IC50, µM) CYP3A4-T, substrate testosterone) it was 8.75 µM; at CYP2C9, 4 µM; at CYP2C19, 8.62 µM.
